According to US5916905A, “2,3-substituted pyridines for the treatment of inflammation” (G. D. Searle & Co., priority 1997, dated 1999):

Tests used:
carrageenan foot edema = assay: Rat Carrageenan Foot Pad Edema Test; type: in vivo, rat (male Sprague-Dawley); details: @ 10 mg/kg body weight, oral, 1 h before carrageenan; read 3 h after injection
Protocol: Rat Carrageenan Foot Pad Edema Test
Male Sprague-Dawley rats were selected in each group so that the average body weight was as close as possible. Rats were fasted with free access to water for over sixteen hours prior to the test. […] One hour later a subplantar injection of 0.1 mL of 1% solution of carrageenan/sterile 0.9% saline was administered and the volume of the injected foot was measured with a displacement plethysmometer connected to a pressure transducer with a digital indicator. Three hours after the injection of the carrageenan, the volume of the foot was again measured.

COX-2 [1] = molecular target: T1, COX-2 (Mus musculus, UniProt Q05769); assay: COX-2 activity in vitro, recombinant murine enzyme (PGE2 ELISA); type: biochemical; details: murine (m); 10 μM arachidonic acid, 10-20 min pre-incubation; read-out: COX-2 ID50
T1 construct: A 2.0 kb fragment containing the coding region; made in house; host or cells: SF9 insect cells (baculovirus, pVL1393)
T1 sequence (Q05769 18-604): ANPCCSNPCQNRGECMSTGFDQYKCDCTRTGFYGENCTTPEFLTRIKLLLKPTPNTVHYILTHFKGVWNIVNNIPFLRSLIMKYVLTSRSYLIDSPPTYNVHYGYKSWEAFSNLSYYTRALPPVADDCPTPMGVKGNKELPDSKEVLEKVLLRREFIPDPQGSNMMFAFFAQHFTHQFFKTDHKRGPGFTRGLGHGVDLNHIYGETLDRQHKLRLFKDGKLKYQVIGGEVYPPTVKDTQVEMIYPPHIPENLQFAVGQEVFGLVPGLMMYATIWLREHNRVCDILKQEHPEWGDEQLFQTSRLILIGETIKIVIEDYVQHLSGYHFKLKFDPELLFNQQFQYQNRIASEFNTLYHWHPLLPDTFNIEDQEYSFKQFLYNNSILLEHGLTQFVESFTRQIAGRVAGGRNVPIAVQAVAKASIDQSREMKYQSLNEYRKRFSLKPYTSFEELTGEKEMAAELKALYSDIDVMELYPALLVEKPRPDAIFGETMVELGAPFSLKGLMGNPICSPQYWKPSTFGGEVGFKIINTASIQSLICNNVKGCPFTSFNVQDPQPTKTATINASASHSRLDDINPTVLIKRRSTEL
Protocol: (§1) The COX-2 inhibition activity of the compounds of this invention illustrated in the Examples was determined by the following methods.
(§2) Recombinant COX-1 and COX-2 were prepared as described by Gierse et al, [J. Biochem., 305, 479-84 (1995)]. A 2.0 kb fragment containing the coding region of either human or murine COX-1 or human or murine COX-2 was cloned into a BamH1 site of the baculovirus transfer vector pVL1393 (Invitrogen) to generate the baculovirus transfer vectors for COX-1 and COX-2 in a manner similar to the method of D. R. O'Reilly et al (Baculovirus Expression Vectors: A Laboratory Manual (1992)). Recombinant baculoviruses were isolated by transfecting 4 μg of baculovirus transfer vector DNA into SF9 insect cells (2×10^8) along with 200 ng of linearized baculovirus plasmid DNA by the calcium phosphate method. See M. D. Summers and G. E. Smith, A Manual of Methods for Baculovirus Vectors and Insect Cell Culture Procedures, Texas Agric. Exp. Station Bull. 1555 (1987). Recombinant viruses were purified by three rounds of plaque purification and high titer (10^7 -10^8 pfu/ml) stocks of virus were prepared. For large scale production, SF9 insect cells were infected in 10 liter fermentors (0.5×10^6 /ml) with the recombinant baculovirus stock such that the multiplicity of infection was 0.1. After 72 hours the cells were centrifuged and the cell pellet homogenized in Tris/Sucrose (50 mM: 25%, pH 8.0) containing 1% 3-[(3-cholamidopropyl)dimethylammonio]-1-propanesulfonate (CHAPS). The homogenate was centrifuged at 10,000×G for 30 minutes, and the resultant supernatant was stored at -80° C. before being assayed for COX activity.
(§3) b. Assay for COX-1 and COX-2 activity COX activity was assayed as PGE2 formed/μg protein/time using an ELISA to detect the prostaglandin released. CHAPS-solubilized insect cell membranes containing the appropriate COX enzyme were incubated in a potassium phosphate buffer (50 mM, pH 8.0) containing epinephrine, phenol, and heme with the addition of arachidonic acid (10 μM). Compounds were pre-incubated with the enzyme for 10-20 minutes prior to the addition of arachidonic acid. Any reaction between the arachidonic acid and the enzyme was stopped after ten minutes at 37° C./room temperature by transferring 40 μl of reaction mix into 160 μl ELISA buffer and 25 μM indomethacin. The PGE2 formed was measured by standard ELISA technology (Cayman Chemical).

COX-1 [2] = molecular target: T2, COX-1 (Mus musculus, UniProt P22437); assay: COX-1 activity in vitro, recombinant murine enzyme (PGE2 ELISA); type: biochemical; details: murine (m); 10 μM arachidonic acid, 10-20 min pre-incubation; read-out: COX-1 ID50
T2 construct: A 2.0 kb fragment containing the coding region; made in house; host or cells: SF9 insect cells (baculovirus, pVL1393)
T2 sequence (P22437 27-602): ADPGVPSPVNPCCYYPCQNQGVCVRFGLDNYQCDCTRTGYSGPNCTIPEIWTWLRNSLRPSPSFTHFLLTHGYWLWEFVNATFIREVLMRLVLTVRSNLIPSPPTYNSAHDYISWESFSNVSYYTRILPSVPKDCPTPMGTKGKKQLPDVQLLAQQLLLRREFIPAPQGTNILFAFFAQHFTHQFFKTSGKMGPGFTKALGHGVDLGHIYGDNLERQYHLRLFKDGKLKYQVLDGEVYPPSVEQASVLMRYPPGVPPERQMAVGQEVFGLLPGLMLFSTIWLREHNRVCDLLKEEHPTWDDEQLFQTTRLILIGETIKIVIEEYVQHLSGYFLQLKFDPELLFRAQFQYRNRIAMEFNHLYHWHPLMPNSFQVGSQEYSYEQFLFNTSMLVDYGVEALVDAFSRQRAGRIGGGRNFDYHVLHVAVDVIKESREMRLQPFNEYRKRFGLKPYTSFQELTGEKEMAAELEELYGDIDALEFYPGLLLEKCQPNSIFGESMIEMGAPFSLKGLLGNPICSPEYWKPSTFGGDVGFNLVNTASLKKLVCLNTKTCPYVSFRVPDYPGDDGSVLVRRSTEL
Protocol: as §1, §2, §3

COX-2 [3] = molecular target: T3, COX-2 (Homo sapiens, UniProt P35354); assay: COX-2 activity in vitro, recombinant human enzyme (PGE2 ELISA); type: biochemical; details: human (h); 10 μM arachidonic acid, 10-20 min pre-incubation; read-out: COX-2 ID50
T3 construct: A 2.0 kb fragment containing the coding region; made in house; host or cells: SF9 insect cells (baculovirus, pVL1393)
T3 sequence (P35354 18-604): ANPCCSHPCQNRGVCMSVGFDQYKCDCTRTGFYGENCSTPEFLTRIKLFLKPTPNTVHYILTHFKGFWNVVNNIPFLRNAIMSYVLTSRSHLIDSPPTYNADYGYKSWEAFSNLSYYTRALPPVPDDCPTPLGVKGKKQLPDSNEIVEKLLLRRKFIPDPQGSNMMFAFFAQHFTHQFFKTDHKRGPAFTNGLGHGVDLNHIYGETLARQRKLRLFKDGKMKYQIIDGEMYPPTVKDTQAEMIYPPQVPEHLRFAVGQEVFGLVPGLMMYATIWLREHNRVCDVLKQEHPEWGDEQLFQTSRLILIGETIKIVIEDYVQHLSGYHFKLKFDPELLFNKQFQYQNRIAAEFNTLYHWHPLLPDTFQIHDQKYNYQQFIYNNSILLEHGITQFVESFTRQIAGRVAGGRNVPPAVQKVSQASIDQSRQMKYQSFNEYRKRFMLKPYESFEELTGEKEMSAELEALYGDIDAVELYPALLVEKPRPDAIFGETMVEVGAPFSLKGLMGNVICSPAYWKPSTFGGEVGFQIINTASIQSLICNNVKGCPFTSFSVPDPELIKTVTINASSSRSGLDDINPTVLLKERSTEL
Protocol: as §1, §2, §3

COX-1 [4] = molecular target: T4, COX-1 (Homo sapiens, UniProt P23219); assay: COX-1 activity in vitro, recombinant human enzyme (PGE2 ELISA); type: biochemical; details: human (h); 10 μM arachidonic acid, 10-20 min pre-incubation; read-out: COX-1 ID50
T4 construct: A 2.0 kb fragment containing the coding region; made in house; host or cells: SF9 insect cells (baculovirus, pVL1393)
Protocol: as §1, §2, §3

T4 sequence (P23219 24-599): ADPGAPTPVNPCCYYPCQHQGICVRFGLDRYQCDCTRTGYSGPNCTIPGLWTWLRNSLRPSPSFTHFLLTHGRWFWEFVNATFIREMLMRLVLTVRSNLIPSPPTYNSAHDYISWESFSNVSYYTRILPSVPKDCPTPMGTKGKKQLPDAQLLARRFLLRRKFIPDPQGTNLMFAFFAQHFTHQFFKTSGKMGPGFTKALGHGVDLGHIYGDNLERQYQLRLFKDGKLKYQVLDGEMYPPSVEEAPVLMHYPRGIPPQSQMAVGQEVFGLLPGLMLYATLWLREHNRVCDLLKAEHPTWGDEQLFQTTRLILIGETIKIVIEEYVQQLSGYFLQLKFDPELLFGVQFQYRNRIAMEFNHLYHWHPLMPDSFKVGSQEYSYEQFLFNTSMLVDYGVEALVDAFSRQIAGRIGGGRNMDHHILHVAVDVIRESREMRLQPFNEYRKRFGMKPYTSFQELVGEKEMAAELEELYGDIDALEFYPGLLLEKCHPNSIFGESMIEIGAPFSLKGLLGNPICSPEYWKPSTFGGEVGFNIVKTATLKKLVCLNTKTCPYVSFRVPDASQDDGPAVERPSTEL

IC50 (COX-2 [1]) [µM]	IC50 (COX-1 [2]) [µM]	Structure (SMILES)	RAT PAW EDEMA % Inhibition (carrageenan foot edema) [%]	IC50 (COX-2 [3]) [µM]	IC50 (COX-1 [4]) [µM]
0.1	> 100	CS(=O)(=O)c1ccc(-c2cc(C#N)c(Cl)nc2-c2ccc(F)cc2)cc1 [Example 7, 2-Chloro-6-(4-fluorophenyl)-5-[4-(methylsulfonyl)phenyl]-pyridine-3-carbonitrile]			
0.3	> 10	CS(=O)(=O)c1ccc(-c2cc(C#N)cnc2-c2ccc(F)cc2)cc1 [Example 22, 6-(4-Fluorophenyl)-5-[4-(methylsulfonyl)phenyl]pyridine-3-carbonitrile]			
0.3	> 100	COc1nc(-c2ccc(S(C)(=O)=O)cc2)c(-c2ccc(F)cc2)cc1C#N [Example 23]			
26.2	> 100	CS(=O)(=O)c1ccc(-c2cc(C(N)=O)c(Cl)nc2-c2ccc(F)cc2)cc1 [Example 20, 2-Chloro-6-(4-fluorophenyl)-5-[4-(methylsulfonyl)phenyl]pyridine-3-carboxamide]			

The remaining lines, values behind:

Structure (SMILES)	IC50 (COX-2 [1]) [µM]	IC50 (COX-1 [2]) [µM]	RAT PAW EDEMA % Inhibition (carrageenan foot edema) [%]	IC50 (COX-2 [3]) [µM]	IC50 (COX-1 [4]) [µM]
CS(=O)(=O)c1ccc(-c2cc(C#N)c(Br)nc2-c2ccc(F)cc2)cc1 [Example 3, 2-Bromo-6-(4-fluorophenyl)-5-[4-(methylsulfonyl)phenyl]-pyridine-3-carbonitrile]	< 0.1	> 10	16		
COc1nc(-c2ccc(F)cc2)c(-c2ccc(S(C)(=O)=O)cc2)cc1C#N [Example 2, 6-(4-Fluorophenyl)-2-methoxy-5-[4-(methylsulfonyl)phenyl]-pyridine-3-carbonitrile]			16	0.2	> 100
CS(=O)(=O)c1ccc(-c2cc(C(N)=O)cnc2-c2ccc(F)cc2)cc1 [Example 21, 6-(4-Fluorophenyl)-5-[4-(methylsulfonyl)phenyl]pyridine-3-carboxamide]	105	> 100			
CS(=O)(=O)c1ccc(-c2cc(C#N)c(-c3ccccc3)nc2-c2ccc(F)cc2)cc1 [Example 4, 6-(4-Fluorophenyl)-5-[4-(methylsulfonyl)phenyl]-2-phenyl-pyridine-3-carbonitrile]	< 0.1	> 10	18		
